Measurements from the supplement of paper PMC10307832.

Assays:
Experiment in all cases: relative viability (nuclei count vs DMSO), 5 days (fraction); higher = more cells survive
Wnt-C59 + Pemetrexed = compound: CC1=NC=CC(=C1)C2=CC=C(C=C2)CC(=O)NC3=CC=C(C=C3)C4=CN=CC=C4 [Wnt-C59] + Nc1nc2[nH]cc(CCc3ccc(C(=O)N[C@@H](CCC(=O)O)C(=O)O)cc3)c2c(=O)[nH]1 [Pemetrexed] (partner 0.2 µM)
Method in brief: (§1)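 Medians of duplicate plates are given as relative viability. That measure is the nuclei count in treated wells divided by the count in vehicle wells. Counts were taken on 4× images of lung cancer cell lines in 1536-well plates, 5 days after pin-tool dosing the day after seeding with one drug alone or a fixed anchor-drug dose plus five library-drug doses (not always all listed) in √10 steps.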

Wnt-C59 + Navitoclax = compound: CC1=NC=CC(=C1)C2=CC=C(C=C2)CC(=O)NC3=CC=C(C=C3)C4=CN=CC=C4 [Wnt-C59] + CC1(C)CCC(c2ccc(Cl)cc2)=C(CN2CCN(c3ccc(C(=O)NS(=O)(=O)c4ccc(N[C@H](CCN5CCOCC5)CSc5ccccc5)c(S(=O)(=O)C(F)(F)F)c4)cc3)CC2)C1 [Navitoclax] (partner 0.5 µM)
Method in brief: as §1

Lapatinib + Tozasertib = compound: CS(=O)(=O)CCNCc1ccc(-c2ccc3ncnc(Nc4ccc(OCc5cccc(F)c5)c(Cl)c4)c3c2)o1 [Lapatinib] + Cc1cc(Nc2cc(N3CCN(C)CC3)nc(Sc3ccc(NC(=O)C4CC4)cc3)n2)n[nH]1 [Tozasertib] (partner 0.1 µM)
Method in brief: as §1

Wnt-C59 + Bortezomib = compound: CC1=NC=CC(=C1)C2=CC=C(C=C2)CC(=O)NC3=CC=C(C=C3)C4=CN=CC=C4 [Wnt-C59] + CC(C)C[C@H](NC(=O)[C@H](Cc1ccccc1)NC(=O)c1cnccn1)B(O)O [Bortezomib] (partner 0.002 µM)
Method in brief: as §1

Cell Line	relative viability (Wnt-C59 + Pemetrexed; first compound 0.001 µM)	relative viability (Wnt-C59 + Pemetrexed; first compound 0.01 µM)	relative viability (Wnt-C59 + Pemetrexed; first compound 0.03162 µM)	relative viability (Wnt-C59 + Pemetrexed; first compound 0.1 µM)	relative viability (Wnt-C59 + Navitoclax; first compound 0.001 µM)	relative viability (Wnt-C59 + Navitoclax; first compound 0.01 µM)	relative viability (Wnt-C59 + Navitoclax; first compound 0.03162 µM)	relative viability (Wnt-C59 + Navitoclax; first compound 0.1 µM)	relative viability (Lapatinib + Tozasertib; first compound 0.02 µM)	relative viability (Lapatinib + Tozasertib; first compound 0.06325 µM)	relative viability (Lapatinib + Tozasertib; first compound 0.2 µM)	relative viability (Lapatinib + Tozasertib; first compound 0.6325 µM)	relative viability (Lapatinib + Tozasertib; first compound 2 µM)	relative viability (Wnt-C59 + Bortezomib; first compound 0.001 µM)	relative viability (Wnt-C59 + Bortezomib; first compound 0.01 µM)	relative viability (Wnt-C59 + Bortezomib; first compound 0.03162 µM)	relative viability (Wnt-C59 + Bortezomib; first compound 0.1 µM)
201T	0.357	0.326	0.311	0.36	1.21	1.2	1.19	1.2	0.967	0.716	0.886	0.923	0.792	1.14	1.08	1.13	1.13
A549	–	–	–	–	1.23	1.31	1.29	1.12	–	–	–	–	–	–	–	–	–
A-427	0.936	1.04	0.994	1.1	0.925	0.9	0.943	1	–	0.252	0.209	0.231	0.185	0.98	1.01	1	0.979
ABC-1	–	–	–	–	–	–	–	–	0.155	0.187	0.156	0.155	0.16	0.266	0.171	0.33	0.306
BEN	0.707	0.738	0.754	0.846	0.0424	0.0676	0.0835	0.0708	–	0.513	0.51	0.515	0.351	0.821	0.88	1.03	0.878
CAL-12T	1.33	1.18	1.29	1.09	1.35	1.45	1.19	1.1	–	0.274	0.333	0.273	0.122	0.979	–	0.875	1.14
COR-L23	0.221	0.194	0.206	0.2	1.13	1.02	1.17	0.944	0.149	0.131	0.152	0.165	0.109	1.02	0.944	0.912	0.95
COR-L 105	1.13	0.887	1.14	1.15	0.905	0.733	0.878	1.02	0.351	0.351	0.355	0.294	0.244	0.579	0.772	0.685	0.662
Calu-6	–	–	–	–	0.801	0.97	0.757	0.787	–	–	–	–	–	0.924	0.99	1.05	1.07
ChaGo-K-1	0.258	0.259	0.252	0.266	0.657	–	1.07	1.18	0.218	0.194	0.206	0.2	0.208	0.767	–	0.892	1.16
EBC-1	–	–	–	–	0.378	0.405	0.431	0.513	–	–	–	–	–	0.638	0.617	0.394	0.591
EKVX	0.376	–	0.367	0.361	0.991	0.87	0.896	0.788	0.366	0.333	0.448	0.273	0.143	1	0.928	1.06	0.895
EMC-BAC-2	0.474	0.447	0.426	0.439	1.11	0.97	1.16	0.969	0.309	0.344	0.309	0.319	0.299	0.913	0.926	0.998	0.943
EPLC-272H	0.38	0.354	0.318	0.315	1.09	1	1.06	1.21	–	–	0.21	0.2	0.239	1	0.934	1.03	0.877
H3255	0.598	0.553	0.583	0.554	0.573	0.502	0.688	0.558	0.317	0.45	0.591	0.527	0.282	0.78	0.823	0.769	0.912
HARA	0.206	0.206	0.26	0.237	1.18	1.17	1.17	1.13	–	0.0893	0.0933	0.0794	0.119	1.1	1.01	1.19	1.15
HCC-15	0.228	0.235	0.215	0.225	0.799	0.708	0.7	0.76	–	0.382	0.371	0.424	0.283	1.01	1.02	1.03	0.994
HCC-44	0.619	0.647	0.64	0.629	1.01	0.904	1.02	0.954	–	0.622	0.81	0.762	0.725	0.948	0.886	0.903	0.887
HCC-78	0.913	0.883	0.907	0.934	0.781	0.729	0.731	0.452	–	0.327	0.407	0.377	0.328	0.571	0.515	0.609	0.422
HCC-366	0.164	0.16	0.163	0.155	1.06	0.926	0.932	1.01	–	0.0794	0.0593	0.0794	0.0545	1.06	0.98	1.16	1.07
HCC-827	0.282	0.262	0.282	0.255	1.08	1.04	1.04	1.02	0.41	0.418	0.414	0.412	0.144	1.05	1.14	0.97	1.05

Cell Line	relative viability (Wnt-C59 + Pemetrexed; first compound 0.001 µM)	relative viability (Wnt-C59 + Pemetrexed; first compound 0.01 µM)	relative viability (Wnt-C59 + Pemetrexed; first compound 0.03162 µM)	relative viability (Wnt-C59 + Pemetrexed; first compound 0.1 µM)	relative viability (Wnt-C59 + Navitoclax; first compound 0.001 µM)	relative viability (Wnt-C59 + Navitoclax; first compound 0.01 µM)	relative viability (Wnt-C59 + Navitoclax; first compound 0.03162 µM)	relative viability (Wnt-C59 + Navitoclax; first compound 0.1 µM)	relative viability (Lapatinib + Tozasertib; first compound 0.02 µM)	relative viability (Lapatinib + Tozasertib; first compound 0.06325 µM)	relative viability (Lapatinib + Tozasertib; first compound 0.2 µM)	relative viability (Lapatinib + Tozasertib; first compound 0.6325 µM)	relative viability (Lapatinib + Tozasertib; first compound 2 µM)	relative viability (Wnt-C59 + Bortezomib; first compound 0.001 µM)	relative viability (Wnt-C59 + Bortezomib; first compound 0.01 µM)	relative viability (Wnt-C59 + Bortezomib; first compound 0.03162 µM)	relative viability (Wnt-C59 + Bortezomib; first compound 0.1 µM)
IA-LM	–	–	–	–	0.851	0.751	0.718	0.751	–	–	–	–	–	0.942	0.713	0.91	0.724
LCLC-103H	0.452	0.467	0.482	0.505	–	–	–	–	0.419	0.448	0.455	0.407	0.384	1.04	1.12	1.06	1.1
LK-2	0.332	0.295	0.323	0.331	0.884	0.972	1.02	0.868	–	–	0.174	0.146	0.19	–	–	–	–
NCI-H358	0.167	0.176	0.207	0.172	–	–	–	–	0.0946	0.0876	0.0913	0.078	0.0817	–	–	–	–
NCI-H522	1.18	1.03	1.17	0.855	–	–	–	–	–	0.433	0.523	0.561	0.513	–	–	–	–
NCI-H650	1.09	0.969	0.934	0.951	–	–	–	–	–	0.648	0.781	0.698	0.601	0.85	1.08	0.72	0.888
NCI-H661	0.884	0.878	0.91	0.884	–	–	–	–	0.377	0.367	0.358	0.348	0.352	0.616	0.758	0.903	0.805
NCI-H727	–	–	–	–	0.554	0.542	0.459	0.451	0.602	–	0.704	0.453	0.391	0.948	0.782	0.951	1.08
NCI-H1299	–	–	–	–	1.03	1.06	1.02	1.02	–	–	–	–	–	1.02	1.06	1.02	1.01
NCI-H1395	0.968	0.861	0.94	0.885	1.24	1.1	1.08	1.32	0.716	0.774	0.701	0.683	0.677	–	–	–	–
NCI-H1563	0.736	0.751	0.723	0.705	–	–	–	–	–	–	–	–	–	0.863	0.917	0.901	0.835
NCI-H1623	–	–	–	–	–	–	–	–	0.423	0.344	–	0.379	0.154	–	–	–	–
NCI-H1648	0.615	0.922	0.81	0.66	–	–	–	–	0.361	0.215	0.689	0.361	0.325	–	–	–	–
NCI-H1703	–	–	–	–	1.45	1.39	1.08	1.08	–	–	–	–	–	0.417	0.271	0.331	0.42
NCI-H1792	0.723	0.714	0.777	1.18	0.671	0.669	0.695	0.701	–	–	–	–	–	0.959	0.963	1.04	0.946
NCI-H1793	0.813	0.693	0.914	0.953	0.397	0.398	0.378	0.95	–	0.286	0.213	0.185	0.142	–	–	–	–
NCI-H1944	0.615	0.594	0.639	0.602	1.06	0.96	1.07	0.964	0.245	0.216	0.239	0.205	0.181	–	–	–	–
NCI-H2170	0.271	0.275	0.253	0.274	0.608	0.35	0.595	0.527	0.704	0.553	0.565	0.403	0.169	–	–	–	–
NCI-H2342	0.758	0.773	0.892	0.777	–	–	–	–	0.495	0.489	0.455	0.538	0.354	–	–	–	–
SK-MES-1	0.92	0.982	0.986	0.827	1.2	1.17	1.3	1.16	0.894	0.996	1.07	0.943	0.495	–	–	–	–
SW 900	0.505	0.469	0.483	0.478	–	–	–	–	–	0.35	0.374	0.298	0.276	–	–	–	–
